Assay results as given in ChEMBL document CHEMBL5532653, “Dual inhibitors of HDAC and other epigenetic regulators: A novel strategy for cancer treatment” (Eur J Med Chem, 2024).
One block for each compound: values may come before it.

Experiments:
[1] = test system: D283 Med; experiment: Antiproliferative activity against human D283 Med cells assessed as inhibition of cell growth measured after 72 hrs by CellTiter-Glo assay; type: functional, cell-based
[2] = target: T1, Bromodomain-containing protein 3 (Homo sapiens, UniProt Q15059); experiment: Inhibition of BRD3 BD2 (unknown origin) incubated for 180 min by TR-FRET assay
[3] = target: T2, Bromodomain-containing protein 2 (Homo sapiens, UniProt P25440); experiment: Inhibition of recombinant BRD2 BD1 (unknown origin) incubated for 120 mins by TR-FRET assay
[4] = target: Bromodomain testis-specific protein (Homo sapiens, UniProt Q58F21); experiment: Inhibition of BRDT BD2 (unknown origin) by TR-FRET assay
[5] = target: T1, Bromodomain-containing protein 3; experiment: Inhibition of recombinant BRD3 BD1 (unknown origin) incubated for 120 mins by TR-FRET assay
[6] = target: T3, Protein deacetylase HDAC6 (Homo sapiens, UniProt Q9UBN7); experiment: Inhibition of HDAC6 (unknown origin) by fluorescence based assay
T3 sequence (Q9UBN7 whole entry): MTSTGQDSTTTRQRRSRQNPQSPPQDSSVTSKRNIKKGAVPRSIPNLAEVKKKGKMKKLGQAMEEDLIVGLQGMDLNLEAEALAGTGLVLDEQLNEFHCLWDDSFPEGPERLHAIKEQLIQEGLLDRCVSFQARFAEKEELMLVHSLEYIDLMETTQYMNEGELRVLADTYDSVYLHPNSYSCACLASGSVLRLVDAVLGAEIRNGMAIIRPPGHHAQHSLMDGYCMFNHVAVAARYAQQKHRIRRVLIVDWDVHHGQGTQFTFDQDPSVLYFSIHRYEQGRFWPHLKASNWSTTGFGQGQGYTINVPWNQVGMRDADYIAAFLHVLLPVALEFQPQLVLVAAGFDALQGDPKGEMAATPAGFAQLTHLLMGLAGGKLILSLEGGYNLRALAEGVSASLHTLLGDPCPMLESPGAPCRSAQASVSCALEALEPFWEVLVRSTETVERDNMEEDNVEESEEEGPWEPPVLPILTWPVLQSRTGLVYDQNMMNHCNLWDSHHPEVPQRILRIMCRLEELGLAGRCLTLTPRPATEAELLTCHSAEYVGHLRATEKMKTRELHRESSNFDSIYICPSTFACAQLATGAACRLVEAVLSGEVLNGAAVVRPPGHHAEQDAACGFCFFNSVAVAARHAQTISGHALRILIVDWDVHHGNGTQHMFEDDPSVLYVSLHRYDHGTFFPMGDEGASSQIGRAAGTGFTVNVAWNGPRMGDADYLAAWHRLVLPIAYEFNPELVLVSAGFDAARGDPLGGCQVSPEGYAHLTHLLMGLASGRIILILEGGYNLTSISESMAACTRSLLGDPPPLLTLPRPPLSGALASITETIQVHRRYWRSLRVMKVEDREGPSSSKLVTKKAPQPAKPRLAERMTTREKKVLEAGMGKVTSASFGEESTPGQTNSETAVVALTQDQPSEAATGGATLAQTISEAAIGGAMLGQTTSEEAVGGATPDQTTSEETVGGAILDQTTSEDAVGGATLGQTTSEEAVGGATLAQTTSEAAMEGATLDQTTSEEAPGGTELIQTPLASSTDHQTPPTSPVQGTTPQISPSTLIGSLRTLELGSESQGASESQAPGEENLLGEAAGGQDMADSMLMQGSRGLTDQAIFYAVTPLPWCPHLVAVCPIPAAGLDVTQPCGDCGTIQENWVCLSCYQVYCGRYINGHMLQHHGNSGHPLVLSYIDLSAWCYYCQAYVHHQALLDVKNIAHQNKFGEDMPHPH

[7] = target: Histone deacetylase 8 (Homo sapiens, UniProt Q9BY41); experiment: Inhibition of HDAC8 (unknown origin) using Fluoro-Substrate Peptide as substrate by fluorescence assay
[8] = target: T2, Bromodomain-containing protein 2; experiment: Inhibition of BRD2 BD2 (unknown origin) incubated for 180 min by TR-FRET assay
[9] = target: T4, Histone deacetylase 2 (Homo sapiens, UniProt Q92769); experiment: Inhibition of HDAC2 (unknown origin) by fluorescence based analysis
[10] = target: Histone deacetylase 3 (Homo sapiens, UniProt O15379); experiment: Inhibition of HDAC3 (unknown origin) using biotinylated histone H3 KAc peptide (1 to 21 residues) as substrate by HTRF assay
[11] = target: Histone deacetylase; experiment: Inhibition of human recombinant HDAC in HeLa cells using Boc-Lys(Ac)-AMC or Boc-Lys(Tfa)-AMC as fluorogenic substrate preincubated for 10 mins followed by substrate addition and measured after 1 hr by fluorescence based analysis; type: cell-based
[12] = target: T4, Histone deacetylase 2; experiment: Inhibition of human recombinant HDAC2 in HeLa cells using Boc-Lys(Ac)-AMC or Boc-Lys(Tfa)-AMC as fluorogenic substrate preincubated for 10 mins followed by substrate addition and measured after 1 hr by fluorescence based analysis; type: cell-based
[13] = target: T3, Protein deacetylase HDAC6; experiment: Inhibition of human recombinant HDAC6 in HeLa cells using Boc-Lys(Ac)-AMC or Boc-Lys(Tfa)-AMC as fluorogenic substrate preincubated for 10 mins followed by substrate addition and measured after 1 hr by fluorescence based analysis; type: cell-based
[14] = target: T5, Histone deacetylase 1 (Homo sapiens, UniProt Q13547); experiment: Inhibition of HDAC1 (unknown origin) using Boc-Lys(Ac)-AMC or Boc-Lys(Tfa)-AMC as substrate incubated for 1 hr by fluorescence based analysis
[15] = test system: U-937; experiment: Antiproliferative activity against human U-937 cells assessed as reduction in cell growth incubated for 72 hrs by MTT assay; type: functional, cell-based; details: U-937, 72 h
[16] = target: T6, DNA (cytosine-5)-methyltransferase 1 (Homo sapiens, UniProt P26358); experiment: Inhibition of DNMT1 (unknown origin) using SAM as substrate at 1 uM by fluorescence assay relative to control
[17] = target: T3, Protein deacetylase HDAC6; experiment: Inhibition of HDAC6 (unknown origin) using expressed in Sf9 cells using Boc-Lys(acetyI)-AMC as substrate preincubated for 1 hr followed by substrate addition and measured after 30 mins by fluorescence based analysis
[18] = test system: MDA-MB-231; experiment: Antiproliferative activity against human MDA-MB-231 cells assessed as reduction in cell growth by MTT assay; type: functional, cell-based
[19] = target: T5, Histone deacetylase 1; experiment: Inhibition of HDAC1 (unknown origin) using ArgHisLysLys(Ac) as substrate by fluorescence based analysis
[20] = target: DNMT3B-DNMT3L complex (Homo sapiens, UniProt Q9UBC3); experiment: Inhibition of DNMT3B/3L (unknown origin); type: protein-complex assay
[21] = test system: A549; experiment: Antiproliferative activity against human A549 cells assessed as reduction in cell growth by MTT assay; type: functional, cell-based
[22] = target: T3, Protein deacetylase HDAC6; experiment: Inhibition of HDAC6 (unknown origin) using Ac-peptide as substrate preincubated for 15 mins followed by substrate addition and measured after 1 hr by HTRF analysis
[23] = target: T6, DNA (cytosine-5)-methyltransferase 1; experiment: Inhibition of DNMT1 (unknown origin)
[24] = test system: MCF7; experiment: Antiproliferative activity against human MCF7 cells assessed as reduction in cell growth by MTT assay; type: functional, cell-based
[25] = target: DNMT3A2/3L complex (Homo sapiens, UniProt Q9Y6K1); experiment: Inhibition of DNMT3A/DNMT3L (unknown origin); type: protein-complex assay
[26] = Antiproliferative activity against human WM983B cells assessed as reduction in cell growth incubated for 72 hrs by MTT assay; type: functional, cell-based
[27] = Inhibition of HDAC1 ([…] residues) (unknown origin) FLAG-tagged CoREST1 (unknown origin) transfected in HEK293F cells using fluorogenic p53 (RHKK(Ac)AMC) as substrate preincubated for 30 mins followed by substrate addition and measured after 15 mins by fluorescence based analysis; set-up: species or system Homo sapiens
[28] = Antiproliferative activity against human MET-1 cells assessed as reduction in cell viability incubated for 72 hrs by MTT assay; type: functional, cell-based; details: MET-1, 72 h
[29] = test system: SK-MEL-5; experiment: Antiproliferative activity against human SK-MEL-5 cells assessed as reduction in cell viability incubated for 72 hrs by MTT assay; type: functional, cell-based; details: SK-MEL-5, 72 h
[30] = Antiproliferative activity against human SCCIC1 cells assessed as cell growth inhibition measured after 72 hrs; type: functional, cell-based; details: SCCIC1, 72 h
[31] = test system: MCF7; experiment: Antiproliferative activity against human MCF7 cells assessed as reduction in cell growth incubated for 72 hrs by MTT assay; type: functional, cell-based; details: MCF7, 72 h
[32] = test system: K562; experiment: Antiproliferative activity against human K562 cells assessed as reduction in cell viability by MTT assay; type: functional, cell-based
[33] = Cytotoxicity against human HEK293T cells assessed as cell growth inhibition by MTT assay; type: toxicity, cell-based, HEK-293T
[34] = test system: A549; experiment: Antiproliferative activity against human A549 cells assessed as reduction in cell viability measured after 48 hrs by MTT assay; type: functional, cell-based; details: A549, 48 h
[35] = test system: HeLa; experiment: Antiproliferative activity against human HeLa cells assessed as reduction in cell viability by MTT assay; type: functional, cell-based
[36] = test system: NCI-H460; experiment: Antiproliferative activity against human NCI-H460 cells assessed as reduction in cell growth measured after 72 hrs by MTT assay; type: functional, cell-based; details: NCI-H460, 72 h
[37] = Cytotoxicity against human CLL cells assessed as reduction in cell viability at 5 uM relative to control; type: toxicity, cell-based
[38] = test system: MEF; experiment: Antiproliferative activity against mouse MEF cells assessed as cell growth inhibition measured after 48 hrs by MTT assay; type: functional, cell-based
[39] = test system: U-937; experiment: Antiproliferative activity against human U-937 cells assessed as inhibition of cell growth at 3 uM measured after 72 hrs by CellTiter-Glo luminescent cell viability assay relative to control; type: functional

T5 sequence (Q13547 whole entry): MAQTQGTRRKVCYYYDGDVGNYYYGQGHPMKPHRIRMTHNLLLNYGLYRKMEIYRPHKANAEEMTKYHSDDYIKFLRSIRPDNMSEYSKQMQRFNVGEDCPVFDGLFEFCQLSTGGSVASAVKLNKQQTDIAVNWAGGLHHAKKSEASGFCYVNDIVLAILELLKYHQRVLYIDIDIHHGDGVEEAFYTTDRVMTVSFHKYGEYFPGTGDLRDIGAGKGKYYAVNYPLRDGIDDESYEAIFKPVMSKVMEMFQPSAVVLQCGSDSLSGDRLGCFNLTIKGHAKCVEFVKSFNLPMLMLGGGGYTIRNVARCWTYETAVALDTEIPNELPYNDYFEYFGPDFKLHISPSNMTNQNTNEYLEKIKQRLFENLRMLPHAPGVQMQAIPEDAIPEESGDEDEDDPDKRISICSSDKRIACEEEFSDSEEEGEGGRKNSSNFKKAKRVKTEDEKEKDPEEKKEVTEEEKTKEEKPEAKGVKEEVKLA
T1 sequence (Q15059 whole entry): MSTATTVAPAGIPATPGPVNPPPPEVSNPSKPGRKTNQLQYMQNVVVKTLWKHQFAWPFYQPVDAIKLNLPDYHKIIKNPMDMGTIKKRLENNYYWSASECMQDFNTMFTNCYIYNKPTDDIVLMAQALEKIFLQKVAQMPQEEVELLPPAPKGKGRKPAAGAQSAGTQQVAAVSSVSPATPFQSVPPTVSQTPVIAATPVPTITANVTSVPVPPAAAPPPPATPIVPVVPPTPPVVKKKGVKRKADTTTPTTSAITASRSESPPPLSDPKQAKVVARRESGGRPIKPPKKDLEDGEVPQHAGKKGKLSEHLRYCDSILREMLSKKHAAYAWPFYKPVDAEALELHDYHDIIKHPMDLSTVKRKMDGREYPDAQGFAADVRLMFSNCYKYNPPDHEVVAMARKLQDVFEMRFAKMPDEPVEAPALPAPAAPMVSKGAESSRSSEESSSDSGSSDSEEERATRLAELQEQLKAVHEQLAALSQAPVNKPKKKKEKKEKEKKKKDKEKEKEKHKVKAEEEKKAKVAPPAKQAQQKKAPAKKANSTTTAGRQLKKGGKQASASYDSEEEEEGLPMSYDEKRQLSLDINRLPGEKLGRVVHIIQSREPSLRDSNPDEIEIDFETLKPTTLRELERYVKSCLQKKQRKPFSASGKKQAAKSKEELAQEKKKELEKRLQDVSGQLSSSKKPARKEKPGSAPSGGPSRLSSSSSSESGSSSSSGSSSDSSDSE
T2 sequence (P25440 whole entry): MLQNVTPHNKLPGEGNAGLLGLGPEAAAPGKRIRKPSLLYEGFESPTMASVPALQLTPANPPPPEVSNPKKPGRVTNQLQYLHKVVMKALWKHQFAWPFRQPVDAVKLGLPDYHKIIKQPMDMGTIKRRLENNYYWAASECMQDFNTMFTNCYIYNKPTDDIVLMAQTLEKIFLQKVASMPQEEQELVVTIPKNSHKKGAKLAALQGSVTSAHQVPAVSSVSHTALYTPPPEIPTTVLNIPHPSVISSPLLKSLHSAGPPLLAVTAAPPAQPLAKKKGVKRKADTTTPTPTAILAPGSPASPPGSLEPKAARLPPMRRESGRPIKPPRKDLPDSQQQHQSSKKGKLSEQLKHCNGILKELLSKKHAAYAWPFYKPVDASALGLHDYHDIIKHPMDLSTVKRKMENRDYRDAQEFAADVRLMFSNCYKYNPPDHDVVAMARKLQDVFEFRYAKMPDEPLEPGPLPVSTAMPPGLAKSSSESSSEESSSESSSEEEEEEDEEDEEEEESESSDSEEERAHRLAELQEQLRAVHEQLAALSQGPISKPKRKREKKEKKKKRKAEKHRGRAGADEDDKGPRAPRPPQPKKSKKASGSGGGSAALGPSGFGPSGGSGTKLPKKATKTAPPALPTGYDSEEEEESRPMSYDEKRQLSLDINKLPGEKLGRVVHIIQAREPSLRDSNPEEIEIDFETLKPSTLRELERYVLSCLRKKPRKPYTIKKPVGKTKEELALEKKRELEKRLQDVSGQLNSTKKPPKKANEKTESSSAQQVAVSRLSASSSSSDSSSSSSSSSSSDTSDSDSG
T4 sequence (Q92769 whole entry, the tested form may be a part): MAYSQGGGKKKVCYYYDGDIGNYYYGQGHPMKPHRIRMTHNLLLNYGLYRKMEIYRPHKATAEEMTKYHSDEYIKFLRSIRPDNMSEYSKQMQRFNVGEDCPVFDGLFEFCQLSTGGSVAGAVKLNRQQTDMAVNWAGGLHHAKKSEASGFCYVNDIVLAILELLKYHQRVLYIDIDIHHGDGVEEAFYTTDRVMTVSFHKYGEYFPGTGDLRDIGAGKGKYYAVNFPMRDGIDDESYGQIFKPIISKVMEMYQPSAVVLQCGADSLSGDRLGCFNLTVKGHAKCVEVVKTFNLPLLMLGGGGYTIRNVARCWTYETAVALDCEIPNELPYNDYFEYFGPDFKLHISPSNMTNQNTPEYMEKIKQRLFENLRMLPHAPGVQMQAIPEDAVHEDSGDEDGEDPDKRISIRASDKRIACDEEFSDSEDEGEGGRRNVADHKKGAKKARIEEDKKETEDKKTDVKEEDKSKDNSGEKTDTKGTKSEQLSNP
T6 sequence (P26358 whole entry): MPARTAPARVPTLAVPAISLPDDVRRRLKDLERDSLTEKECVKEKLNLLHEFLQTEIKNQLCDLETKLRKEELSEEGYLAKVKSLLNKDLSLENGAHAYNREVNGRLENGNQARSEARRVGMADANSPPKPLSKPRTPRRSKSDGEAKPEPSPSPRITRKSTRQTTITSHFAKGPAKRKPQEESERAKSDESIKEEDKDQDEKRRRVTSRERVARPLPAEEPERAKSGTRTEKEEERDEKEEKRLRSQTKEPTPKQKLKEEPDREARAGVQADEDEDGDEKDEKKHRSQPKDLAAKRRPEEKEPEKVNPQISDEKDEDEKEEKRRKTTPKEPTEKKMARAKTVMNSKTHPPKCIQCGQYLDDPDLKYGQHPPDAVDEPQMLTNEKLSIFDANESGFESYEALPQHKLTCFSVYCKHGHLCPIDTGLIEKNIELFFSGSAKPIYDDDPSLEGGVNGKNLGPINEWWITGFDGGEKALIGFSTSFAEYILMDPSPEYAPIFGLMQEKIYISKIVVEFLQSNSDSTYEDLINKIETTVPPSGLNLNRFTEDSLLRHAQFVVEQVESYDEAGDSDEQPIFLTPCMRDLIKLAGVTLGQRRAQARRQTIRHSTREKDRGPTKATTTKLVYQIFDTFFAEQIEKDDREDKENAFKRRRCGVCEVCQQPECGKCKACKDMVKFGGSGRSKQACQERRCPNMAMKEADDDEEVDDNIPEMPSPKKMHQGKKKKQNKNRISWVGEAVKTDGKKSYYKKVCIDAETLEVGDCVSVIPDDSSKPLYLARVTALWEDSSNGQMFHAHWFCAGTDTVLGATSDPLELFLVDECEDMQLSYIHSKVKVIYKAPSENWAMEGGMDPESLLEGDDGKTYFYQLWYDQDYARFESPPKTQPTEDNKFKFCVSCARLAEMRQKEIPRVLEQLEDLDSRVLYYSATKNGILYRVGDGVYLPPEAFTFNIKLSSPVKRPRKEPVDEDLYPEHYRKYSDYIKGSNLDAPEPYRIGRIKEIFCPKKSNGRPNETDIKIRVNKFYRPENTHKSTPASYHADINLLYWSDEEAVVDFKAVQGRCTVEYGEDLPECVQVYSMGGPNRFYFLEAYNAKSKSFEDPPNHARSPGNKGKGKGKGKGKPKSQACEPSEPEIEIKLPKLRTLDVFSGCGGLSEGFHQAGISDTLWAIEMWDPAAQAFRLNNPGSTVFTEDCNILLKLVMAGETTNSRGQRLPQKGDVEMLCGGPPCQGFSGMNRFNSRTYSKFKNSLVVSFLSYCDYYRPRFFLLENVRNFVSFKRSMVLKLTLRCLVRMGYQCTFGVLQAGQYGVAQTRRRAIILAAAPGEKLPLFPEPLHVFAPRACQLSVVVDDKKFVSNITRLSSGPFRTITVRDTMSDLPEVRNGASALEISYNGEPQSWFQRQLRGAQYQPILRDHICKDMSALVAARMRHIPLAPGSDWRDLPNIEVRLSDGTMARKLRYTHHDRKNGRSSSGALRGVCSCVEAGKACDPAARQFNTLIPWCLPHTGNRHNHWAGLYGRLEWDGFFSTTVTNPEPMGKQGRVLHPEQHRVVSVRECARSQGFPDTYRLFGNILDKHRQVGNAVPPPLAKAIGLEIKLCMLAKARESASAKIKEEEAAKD
Sequence of Histone deacetylase 8 (Q9BY41 whole entry): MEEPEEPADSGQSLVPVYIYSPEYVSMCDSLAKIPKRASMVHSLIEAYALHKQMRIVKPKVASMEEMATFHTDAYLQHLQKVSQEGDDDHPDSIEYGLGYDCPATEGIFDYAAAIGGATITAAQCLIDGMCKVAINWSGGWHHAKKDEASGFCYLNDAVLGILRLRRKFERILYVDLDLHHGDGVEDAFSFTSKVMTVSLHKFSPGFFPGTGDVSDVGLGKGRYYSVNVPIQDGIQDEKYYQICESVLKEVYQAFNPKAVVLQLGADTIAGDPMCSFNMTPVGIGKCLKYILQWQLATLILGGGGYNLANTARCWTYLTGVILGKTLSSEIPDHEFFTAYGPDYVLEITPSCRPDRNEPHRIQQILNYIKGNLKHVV
Sequence of Histone deacetylase 3 (O15379 whole entry, the tested form may be a part): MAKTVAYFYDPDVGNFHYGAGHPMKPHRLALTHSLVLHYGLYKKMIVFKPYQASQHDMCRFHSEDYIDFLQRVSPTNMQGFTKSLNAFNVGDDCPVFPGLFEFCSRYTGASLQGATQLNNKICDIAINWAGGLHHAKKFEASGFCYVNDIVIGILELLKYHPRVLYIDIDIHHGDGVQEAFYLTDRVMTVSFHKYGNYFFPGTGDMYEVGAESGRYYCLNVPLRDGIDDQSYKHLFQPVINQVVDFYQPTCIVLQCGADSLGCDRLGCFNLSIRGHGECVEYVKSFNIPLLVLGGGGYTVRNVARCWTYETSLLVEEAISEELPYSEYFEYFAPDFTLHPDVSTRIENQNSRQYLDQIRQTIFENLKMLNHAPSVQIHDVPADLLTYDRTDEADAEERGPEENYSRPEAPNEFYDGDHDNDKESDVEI

Structure (SMILES): Cn1cc(-c2ccc(S(=O)(=O)n3ccc(/C=C/C(=O)Nc4ccccc4N)c3)cc2)cn1 [DOMATINOSTAT]
IC50 [1]: 0.15 µM

Structure (SMILES): Cc1sc2c(c1C)C(c1ccc(Cl)cc1)=N[C@@H](CC(=O)Nc1ccc(C(=O)NO)cc1)c1nnc(C)n1-2
IC50 [2]: 0.038 µM | IC50 [3]: 0.316 µM | IC50 [4]: 32.2 µM | IC50 [5]: 0.133 µM | IC50 [6]: 0.034 µM | IC50 [7]: 0.192 µM | IC50 [8]: 0.078 µM | IC50 [9]: 0.052 µM | IC50 [10]: 0.039 µM

IC50 [11]: 0.291 µM | IC50 [12]: 0.029 µM | IC50 [13]: > 1 µM
Structure (SMILES): Cc1noc(C)c1-c1ccc2c(c1)c(Cc1ccc(F)cc1)cn2CCCCCCC(=O)NO

IC50 [14]: 0.0024 µM | IC50 [15]: 1.3 µM | inhibition [16]: 44.5% | IC50 [17]: 0.0048 µM
Structure (SMILES): Nc1ncnc2c1ncn2Cc1ccc(-c2cn(CCCCCCC(=O)NO)nn2)cc1

IC50 [18]: 4.65 µM | IC50 [19]: 4.16 µM | IC50 [20]: 1.32 µM | IC50 [21]: 3.92 µM | IC50 [22]: > 100 µM | IC50 [23]: 2.02 µM | IC50 [24]: 1.88 µM | IC50 [25]: 0.93 µM
Structure (SMILES): O=C(NO)C1CCN(C[C@@H](O)COC(Cn2c3ccccc3c3ccccc32)Cn2c3ccccc3c3ccccc32)CC1

IC50 [27]: 0.206 µM | IC50 [29]: 0.13 µM
Structure (SMILES): Nc1ccccc1NC(=O)c1ccc(CCCC(=O)Nc2ccc(C3CC3N)cc2)cc1 (centres undefined)
IC50 [26]: 0.2 µM | IC50 [28]: 0.006 µM | IC50 [30]: 0.041 µM

IC50 [31]: 37.4 µM | IC50 [32]: 5.74 µM | IC50 [34]: 36.2 µM | IC50 [35]: 15.3 µM
Structure (SMILES): COc1ccc2c(NC3CCN(Cc4ccccc4)CC3)nc(NCCNC(=O)CCCCC(=O)NO)nc2c1
IC50 [33]: 19.9 µM

Structure (SMILES): Cn1c(CCCCCCC(=O)NO)nc2cc(N(CCCl)CCCl)ccc21 [TINOSTAMUSTINE]
IC50 [36]: 2.2 µM | Activity [37]: ~ 100 nM | IC50 [38]: 5.7 µM

Structure (SMILES): Cc1sc2c(c1C)C(c1ccc(Cl)cc1)=N[C@@H](CC(=O)NCCCC(=O)Nc1ccccc1N)c1nnc(C)n1-2
inhibition at 3 µM [39]: 84%
